Experimental findings from US20120264827A1, “SULFANYLAMIDE DERIVATIVES, USES THEREOF AND COMPOSITIONS COMPRISING THEM” (YISSUM RESEARCH DEVELOPMENT COMPANY OF THE HEBREW …, priority 2009, published 2012) are described below.

Data set [1] relates to maximal electroshock seizure (MES). Description: Maximal electroshock seizure test (MES), mice, intraperitoneal.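 Also: adult male CF no. 1 albino mice of 18–25 g, given compound intraperitoneally as a 0.5% methylcellulose suspension.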 The format is in vivo. Particulars: ip.
For data set [2], the system named is subcutaneous metrazol (pentylenetetrazol) seizure. Description: Subcutaneous metrazol seizure threshold test (scMet), mice, intraperitoneal.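 Also: adult male CF no. 1 albino mice weighing 18-25 g, dosed intraperitoneally with compounds suspended in 0.5% methylcellulose.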 As to conditions: ip. The format is in vivo.
Data set [3] relates to maximal electroshock seizure (MES). Description: Maximal electroshock seizure test (MES), rats, oral.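 Also: adult male Sprague-Dawley rats received test compounds by mouth as a suspension in 0.5% methylcellulose.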 Particulars: Rattus norvegicus, po, read-out: Anti-MES activity (number of animals protected/number of animals tested). (In the maximal electroshock model the usual endpoint is tonic extension of the hind limbs.)
Where [4] appears, read: 30 mg/kg, 0.5 h after administration.
Where [5] appears, read: 30 mg/kg, 4 h after administration.
Setting [6] is: 100 mg/kg, 0.5 h after administration.
Setting [7] is: 100 mg/kg, 4 h after administration.
Where [8] appears, read: 300 mg/kg, 0.5 h after administration.
Where [9] appears, read: 300 mg/kg, 4 h after administration.

Where two headings read alike, the source gives them in different places.

`CC(C)(C)C(=O)NCc1ccc(S(N)(=O)=O)cc1` [Compound 26, 2,2-Dimethyl-N-(4-sulfamoyl-benzyl)-propionamide] yielded a melting point of 157 to 158 °C. In data set [1] (setting [4]), the “MES (number of animals protected/number of animals tested)” value is 0/1. Moreover, the “MES (number of animals protected/number of animals tested)” value in data set [1] (setting [5]) is 0/1. For the same compound, the “MES (number of animals protected/number of animals tested)” value in data set [1] (setting [6]) is 0/3. Besides, the “MES (number of animals protected/number of animals tested)” value in data set [1] (setting [7]) is recorded as 0/3. The “MES (number of animals protected/number of animals tested)” value in data set [1] (setting [8]) was 0/1. In data set [1] (setting [9]), the “MES (number of animals protected/number of animals tested)” value is listed as 0/1. Also, in data set [2] (setting [4]), the “scMet (number of animals protected/number of animals tested)” value is recorded as 0/1 0/1 0/1. Further, the “scMet (number of animals protected/number of animals tested)” value in data set [2] (setting [5]) is listed as 0/1 0/1 0/1. Besides, the “scMet (number of animals protected/number of animals tested)” value in data set [2] (setting [6]) is recorded as 0/1 0/1 0/1. Moreover, the “scMet (number of animals protected/number of animals tested)” value in data set [2] (setting [7]) was 0/1 0/1 0/1. In addition, the “scMet (number of animals protected/number of animals tested)” value in data set [2] (setting [8]) is 0/1 0/1 0/1. Further, the “scMet (number of animals protected/number of animals tested)” value in data set [2] (setting [9]) was 0/1 0/1 0/1.
Compound `CCC(C)C(CC)C(=O)Nc1ccc(S(N)(=O)=O)cc1` (stereo not shown) [Compound 19, 2-Ethyl-3-methyl-N-(4-sulfamoyl-phenyl)-pentanamide] gave a melting point of 203 to 205 °C. In addition, the responders at 30 mg/kg in data set [3] (0.5 h) was 0%. Further, the responders at 30 mg/kg in data set [3] (1 h) was 75%. For the same compound, the responders at 30 mg/kg in data set [3] (2 h) was 100%. Besides, in data set [3] (4 h), the responders at 30 mg/kg was 75%. Further, in data set [3] ([…]), the responders at 30 mg/kg was 0%. In data set [1] (setting [4]), the “MES (number of animals protected/number of animals tested)” value was 0/1. The “MES (number of animals protected/number of animals tested)” value in data set [1] (setting [5]) was 0/1. For the same compound, the “MES (number of animals protected/number of animals tested)” value in data set [1] (setting [6]) is 3/7. For the same compound, the “MES (number of animals protected/number of animals tested)” value in data set [1] (setting [7]) was 3/3. In data set [1] (setting [8]), the “MES (number of animals protected/number of animals tested)” value was 4/5. Moreover, the “MES (number of animals protected/number of animals tested)” value in data set [1] (setting [9]) was 1/1. In addition, in data set [2] (setting [4]), the “scMet (number of animals protected/number of animals tested)” value was 0/1 0/1 0/1. Moreover, the “scMet (number of animals protected/number of animals tested)” value in data set [2] (setting [5]) is 0/1 0/1 0/1. The “scMet (number of animals protected/number of animals tested)” value in data set [2] (setting [6]) is 0/1 0/1 0/1. Further, the “scMet (number of animals protected/number of animals tested)” value in data set [2] (setting [7]) is reported as 0/1 0/1 0/1. In addition, the “scMet (number of animals protected/number of animals tested)” value in data set [2] (setting [8]) was 0/1 0/1 0/1. Further, in data set [2] (setting [9]), the “scMet (number of animals protected/number of animals tested)” value is 0/1 0/1 0/1.
The compound `CC(C)(C)CC(=O)NCc1ccc(S(N)(=O)=O)cc1` [Compound 27, 3,3-Dimethyl-N-(4-sulfamoyl-benzyl)-butyramide] returned a melting point of 205 to 207 °C. For the same compound, the responders at 30 mg/kg in data set [3] (0.5 h) was 0%. Further, the responders at 30 mg/kg in data set [3] (1 h) was 25%. In addition, the responders at 30 mg/kg in data set [3] (2 h) was 50%. The responders at 30 mg/kg in data set [3] (4 h) is 50%. For the same compound, the responders at 30 mg/kg in data set [3] ([…]) amounted to 0%. Moreover, in data set [1] (setting [4]), the “MES (number of animals protected/number of animals tested)” value is given as 0/1. Also, the “MES (number of animals protected/number of animals tested)” value in data set [1] (setting [5]) was 0/1. The “MES (number of animals protected/number of animals tested)” value in data set [1] (setting [6]) is on record as 0/3. In addition, in data set [1] (setting [7]), the “MES (number of animals protected/number of animals tested)” value was 1/3. In data set [1] (setting [8]), the “MES (number of animals protected/number of animals tested)” value is on record as 0/1. In data set [1] (setting [9]), the “MES (number of animals protected/number of animals tested)” value is on record as 1/1. Further, the “scMet (number of animals protected/number of animals tested)” value in data set [2] (setting [4]) is given as 0/1 0/1 0/1. Further, the “scMet (number of animals protected/number of animals tested)” value in data set [2] (setting [5]) was 0/1 0/1 0/1. In addition, in data set [2] (setting [6]), the “scMet (number of animals protected/number of animals tested)” value is listed as 0/1 0/1 0/1. The “scMet (number of animals protected/number of animals tested)” value in data set [2] (setting [7]) is listed as 0/1 0/1 0/1. Besides, in data set [2] (setting [8]), the “scMet (number of animals protected/number of animals tested)” value was 0/1 0/1 0/1. Moreover, the “scMet (number of animals protected/number of animals tested)” value in data set [2] (setting [9]) was 0/1 0/1 0/1.

The term melting point denotes the temperature of the solid-liquid transition.
